Key:
Format in all cases: in vivo
Details in all cases: evaluated after 13 days
Lolium perenne (LOLPE) [1] = assay: Post-emergence herbicide test, glasshouse, percentage damage
In short: (§1)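 Pots of standard soil were sown and kept in a glasshouse at 24/16 °C day/night, 14 h light, 65% humidity; plants were sprayed one day after sowing (pre-emergence) or after 8 days (post-emergence) at 500 g/ha unless otherwise stated. Damage was scored after 13 days on a five-point scale (5=81-100%; 1=0-20%).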

Solanum nigrum (SOLNI) [2] = assay: as above
In short: as §1

[3] = tested on: Ipomoea hederacea (IPOHE); assay: as above
In short: as §1

[4] = tested on: Amaranthus retoflexus (AMARE); assay: as above
In short: as §1

[5] = tested on: Echinochloa crus-galli (ECHCG); assay: as above
In short: as §1

Setaria faberi (SETFA) [6] = assay: as above
In short: as §1

Lolium perenne (LOLPE) [7] = assay: Pre-emergence herbicide test, glasshouse, percentage damage
In short: as §1

Solanum nigrum (SOLNI) [8] = assay: as above
In short: as §1

[9] = tested on: Ipomoea hederacea (IPOHE); assay: as above
In short: as §1

[10] = tested on: Amaranthus retoflexus (AMARE); assay: as above
In short: as §1

[11] = tested on: Echinochloa crus-galli (ECHCG); assay: as above
In short: as §1

Setaria faberi (SETFA) [12] = assay: as above
In short: as §1

SMILES	percentage damage caused to the plant, LOLPE (Lolium perenne (LOLPE) [1]; 1000 g/ha)	percentage damage caused to the plant, SOLNI (Solanum nigrum (SOLNI) [2]; 1000 g/ha)	percentage damage caused to the plant, IPOHE ([3]; 1000 g/ha)	percentage damage caused to the plant, AMARE ([4]; 1000 g/ha)	percentage damage caused to the plant, ECHCG ([5]; 1000 g/ha)	percentage damage caused to the plant, SETFA (Setaria faberi (SETFA) [6]; 1000 g/ha)	Pre-emergence Test LOLPE percentage damage (five point scale) (Lolium perenne (LOLPE) [7]; rate 1000 g/ha)	Pre-emergence Test SOLNI percentage damage (five point scale) (Solanum nigrum (SOLNI) [8]; rate 1000 g/ha)	Pre-emergence Test IPOHE percentage damage (five point scale) ([9]; rate 1000 g/ha)	Pre-emergence Test AMARE percentage damage (five point scale) ([10]; rate 1000 g/ha)	Pre-emergence Test ECHCG percentage damage (five point scale) ([11]; rate 1000 g/ha)	Pre-emergence Test SETFA percentage damage (five point scale) (Setaria faberi (SETFA) [12]; rate 1000 g/ha)	further results
Fc1cc(Cl)cnc1Oc1ccccc1-c1ccsc1 [Compound A70]	1 (1=0-20%)	4 (4=61-80%)	1 (1=0-20%)	3 (3=41-60%)	3 (3=41-60%)	2 (2=21-40%)	1 (1=0-20%)	1 (1=0-20%)	1 (1=0-20%)	2 (2=21-40%)	1 (1=0-20%)	1 (1=0-20%)	–
Fc1cnc(Oc2ccccc2-n2cc(C(F)(F)F)cn2)c(F)c1 [Compound A18]	–	–	–	–	–	–	–	–	–	–	–	–	percentage damage caused to the plant, LOLPE (Lolium perenne (LOLPE) [1]; 250 g/ha): 2 (2=21-40%); percentage damage caused to the plant, SOLNI (Solanum nigrum (SOLNI) [2]; 250 g/ha): 3 (3=41-60%); percentage damage caused to the plant, IPOHE ([3]; 250 g/ha): 2 (2=21-40%); percentage damage caused to the plant, AMARE ([4]; 250 g/ha): 3 (3=41-60%); percentage damage caused to the plant, ECHCG ([5]; 250 g/ha): 4 (4=61-80%); percentage damage caused to the plant, SETFA (Setaria faberi (SETFA) [6]; 250 g/ha): 3 (3=41-60%); Pre-emergence Test LOLPE percentage damage (five point scale) (Lolium perenne (LOLPE) [7]; rate 250 g/ha): 1 (1=0-20%); Pre-emergence Test SOLNI percentage damage (five point scale) (Solanum nigrum (SOLNI) [8]; rate 250 g/ha): 5 (5=81-100%); Pre-emergence Test IPOHE percentage damage (five point scale) ([9]; rate 250 g/ha): 1 (1=0-20%); Pre-emergence Test AMARE percentage damage (five point scale) ([10]; rate 250 g/ha): 5 (5=81-100%); Pre-emergence Test ECHCG percentage damage (five point scale) ([11]; rate 250 g/ha): 5 (5=81-100%); Pre-emergence Test SETFA percentage damage (five point scale) (Setaria faberi (SETFA) [12]; rate 250 g/ha): 5 (5=81-100%)
Fc1cccc(Oc2nc(Cl)ccc2C(F)(F)F)c1-c1cc(C(F)F)no1 [Compound A80]	1 (1=0-20%)	5 (5=81-100%)	1 (1=0-20%)	5 (5=81-100%)	1 (1=0-20%)	1 (1=0-20%)	1 (1=0-20%)	1 (1=0-20%)	1 (1=0-20%)	2 (2=21-40%)	1 (1=0-20%)	1 (1=0-20%)	–
Fc1cc(Cl)cnc1Oc1cccc(F)c1-n1cc(C(F)(F)F)cn1 [Compound A58]	5 (5=81-100%)	5 (5=81-100%)	5 (5=81-100%)	5 (5=81-100%)	4 (4=61-80%)	5 (5=81-100%)	5 (5=81-100%)	5 (5=81-100%)	5 (5=81-100%)	5 (5=81-100%)	5 (5=81-100%)	5 (5=81-100%)	–
FC(F)c1cc(-c2c(Cl)cccc2Oc2ccc(C(F)(F)F)cn2)on1 [Compound A110]	4 (4=61-80%)	5 (5=81-100%)	4 (4=61-80%)	5 (5=81-100%)	4 (4=61-80%)	5 (5=81-100%)	4 (4=61-80%)	4 (4=61-80%)	4 (4=61-80%)	5 (5=81-100%)	4 (4=61-80%)	5 (5=81-100%)	–
